Results reported in US8791132B2, “Compounds and methods for treatment of hypertension” (Medivation Technologies, Inc., priority 2011, dated 2014).
Where two headings read alike, the source gives them in different places. Values belong to the compound of their own block, whether it stands above or below them.

Assays:
[1] = target: T1, human recombinant adrenergic α2B receptor (Homo sapiens, UniProt P18089); experiment: Radioligand binding, adrenergic α2B ([3H]Rauwolscine); conditions: for Percentage inhibition of ligand binding, Adrenergic α2B (0.03 μM): compound at 0.03 μM; for Ki: read-out: Ki α2B; for inhibition at 0.03 µM: read-out: Percentage inhibition of ligand binding, Adrenergic α2B (0.03 μM), compound at 0.03 μM; for Percentage inhibition of ligand binding, Adrenergic α2B: 0.03 μM compound; for Percentage inhibition of ligand binding, Adrenergic α2B (0.03 μM) / Percentage inhibition of ligand binding, Adrenergic α2B: 0.03 µM
T1 construct: expressed in transfected cells; host or cells: CHO-K1
T1 sequence (P18089 1-450): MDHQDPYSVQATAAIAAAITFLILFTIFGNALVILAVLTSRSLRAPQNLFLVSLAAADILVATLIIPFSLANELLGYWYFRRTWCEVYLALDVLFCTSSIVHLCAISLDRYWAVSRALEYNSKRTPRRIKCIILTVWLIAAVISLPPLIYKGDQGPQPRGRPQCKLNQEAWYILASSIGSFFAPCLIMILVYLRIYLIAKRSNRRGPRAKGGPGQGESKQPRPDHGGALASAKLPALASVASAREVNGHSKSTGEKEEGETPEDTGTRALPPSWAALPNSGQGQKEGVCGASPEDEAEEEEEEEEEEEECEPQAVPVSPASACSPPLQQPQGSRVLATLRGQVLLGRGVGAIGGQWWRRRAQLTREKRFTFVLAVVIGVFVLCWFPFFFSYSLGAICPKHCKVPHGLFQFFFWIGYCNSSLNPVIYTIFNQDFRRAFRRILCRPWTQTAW
Description: To evaluate in radioligand binding assays the activity of compounds of the invention, human recombinant adrenergic α2B receptor expressed in Chinese hamster ovary (CHO) K1 cells (Uhlen, S. et al, Eur. J. Pharmacol. 343(1):93, 1998) in a modified Tris-HCl buffer (50 mM Tris-HCl, pH 7.4, 12.5 mM MgCl2, 1 mM EDTA, 0.2% BSA) was used. Compounds of the invention were incubated with 2.5 nM [3H]Rauwolscine for 60 min at 25° C. Non-specific binding was estimated in the presence of 10 μM Prazosin. Receptor proteins were filtered and washed, the filters were then counted to determine [3H]Rauwolscine specifically bound. […] Compounds of the invention were tested in this biochemical assay and percent inhibition of specific binding was determined. Biochemical assay results are presented as the percent inhibition of specific binding in Table B1.

[2] = target: T2, human recombinant adrenergic α2A receptor (Homo sapiens, UniProt P08913); experiment: Radioligand binding, adrenergic α2A ([3H]MK-912); conditions: for Percentage inhibition of ligand binding, Adrenergic α2A (0.1 μM): compound at 0.1 μM; for Percentage inhibition of ligand binding, Adrenergic α2A (0.1 μM) / inhibition at 0.1 µM: [3H]MK-912, repeat datapoints each shown; for inhibition at 0.1 µM: read-out: Percentage inhibition of ligand binding, Adrenergic α2A (0.1 μM), compound at 0.1 μM; for Percentage inhibition of ligand binding, Adrenergic α2A: 0.1 μM compound; for Percentage inhibition of ligand binding, Adrenergic α2A (0.1 μM) / Percentage inhibition of ligand binding, Adrenergic α2A: 0.1 µM
T2 construct: expressed in transfected cells; host or cells: insect Sf9 cells
T2 sequence (P08913 1-465): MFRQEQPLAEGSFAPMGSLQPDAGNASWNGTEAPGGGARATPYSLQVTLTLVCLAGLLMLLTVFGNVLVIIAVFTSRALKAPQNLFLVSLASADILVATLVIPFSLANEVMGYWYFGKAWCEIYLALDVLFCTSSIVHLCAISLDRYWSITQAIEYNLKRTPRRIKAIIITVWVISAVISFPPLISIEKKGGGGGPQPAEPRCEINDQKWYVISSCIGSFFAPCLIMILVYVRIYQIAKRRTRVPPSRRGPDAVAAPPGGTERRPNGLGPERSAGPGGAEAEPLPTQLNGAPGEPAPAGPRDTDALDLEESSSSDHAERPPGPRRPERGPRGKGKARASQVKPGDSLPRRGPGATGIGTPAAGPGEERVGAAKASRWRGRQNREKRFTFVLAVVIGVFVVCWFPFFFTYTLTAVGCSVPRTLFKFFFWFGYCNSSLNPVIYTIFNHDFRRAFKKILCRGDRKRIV
Description: To evaluate in radioligand binding assays the activity of compounds of the invention, human recombinant adrenergic α2A receptor expressed in insect Sf9 cells (Uhlen, S. et al, J. Pharmacol. Exp. Ther. 271:1558, 1994) in a modified Tris-HCl buffer (50 mM Tris-HCl, pH 7.4, 12.5 mM MgCl2, 2 mM EDTA) was used. Compounds of invention were incubated with 1 nM [^3H]MK-912 for 60 min at 25° C. MK912 is (2S-trans)-1,3,4,5′,6,6′,7,12b-octahydro-1′,3′-dimethyl-spiro[2H-benzofuro[2,3-a]quinolizine-2,4′(1′H)-pyrimidin]-2′(3′H)-one hydrochloride. Non-specific binding was estimated in the presence of 10 μM WB-4101 (2-(2,6-Dimethoxyphenoxyethyl)aminomethyl-1,4-benzodioxane hydrochloride). Receptor proteins were filtered and washed, the filters were then counted to determine [^3H]MK-912 specifically bound. […] Compounds of the invention were tested in this biochemical assay and percent inhibition of specific binding was determined. Biochemical assay results are presented as the percent inhibition of specific binding in Table B1.

[3] = [3H]Rauwolscine, repeat datapoints each shown
[4] = read-out: Percentage inhibition of ligand binding, Adrenergic α2B (0.1 μM), compound at 0.1 μM, [3H]Rauwolscine, repeat datapoints each shown
[5] = 0.1 μM compound, read-out: Percentage inhibition of ligand binding, Adrenergic α2B

- Percentage inhibition of ligand binding, Adrenergic α2B (0.03 μM) [1, 3]: 27%
- Percentage inhibition of ligand binding, Adrenergic α2A (0.1 μM) [2]: 61%
Compound: C/C(=C\n1c2c(c3cc(C)ccc31)C1CCCCN1CC2)c1ccc(F)cc1 (single isomer, unassigned) [199b]

- Percentage inhibition of ligand binding, Adrenergic α2B (0.03 μM) [1, 3]: 69%
- Percentage inhibition of ligand binding, Adrenergic α2A (0.1 μM) [2]: 21%
Compound: Cc1cnc2c(c1)c1c(n2CC(O)c2ccc(F)cc2)CCN(C)C1 (single isomer, unassigned) [136b]

- inhibition at 0.1 µM [1, 4]: 50%
Compound: FC(F)(F)c1ccc(CCn2c3c(c4cccnc42)C2CCCN2CC3)cn1 (centres unmarked) [IV-2]

- inhibition at 0.1 µM [1, 5]: 103%
Compound: C/C(=C\n1c2c(c3cc(C)ccc31)CN(C)CC2)c1cnccc1C [II-76, (E)-2,8-dimethyl-5-(2-(4-methylpyridin-3-yl)prop-1-en-1-yl)-2,3,4,5-tetrahydro-1H-pyrido[4,3-b]indole]

- Ki [1]: 0.51 nM
- inhibition at 0.03 µM [1, 3]: 102%
- inhibition at 0.1 µM [2]: 35%
Compound: Cc1ccc2c(c1)c1c(n2CC(N=[N+]=[N-])c2ccncc2)CCN(C)C1 (racemic) [V-1, 5-(2-azido-2-(pyridin-4-yl)ethyl)-2,3,4,5-tetrahydro-2,8-dimethyl-1H-pyrido[4,3-b]indole]

- Percentage inhibition of ligand binding, Adrenergic α2B (0.03 μM) [1, 3]: 11%
- Percentage inhibition of ligand binding, Adrenergic α2A (0.1 μM) [2]: −11%
Compound: Cc1cnc2c(c1)c1c(n2CC(C)(O)c2ccc(C)nc2)CCN2CCCC12 (single isomer, unassigned) [148d]

- Percentage inhibition of ligand binding, Adrenergic α2B [1]: 8%
- Percentage inhibition of ligand binding, Adrenergic α2A [2]: 0%
Compound: OCCN1CCc2c(c3cc(Cl)ccc3n2CC(O)c2cccnc2)C1 (single isomer, unassigned) [II-94a]

- Percentage inhibition of ligand binding, Adrenergic α2B (0.03 μM) [1, 3]: 93%
Compound: Cc1ccc2c(c1)c1c(n2CC(C)(O)c2cccnc2)CCN(C)C1C (single isomer, unassigned) [II-152a]

- inhibition at 0.1 µM [1, 4]: -5%
Compound: CN1Cc2c(n(CCc3ccc(C(F)(F)F)nc3)c3ncccc23)C(C)(C)C1 [II-215]

- inhibition at 0.1 µM [1, 4]: 17%
Compound: Cc1cnc2c(c1)c1c(n2CCc2ccc(C(F)(F)F)nc2)CC2CCCN2C1 (centres unmarked) [II-239]

- inhibition at 0.1 µM [2]: 17%
Compound: Cc1ccc2c(c1)c1c(n2CC(c2ccncc2)N2CCCC2)CCN(C)C1 (single isomer, unassigned) [152a]

- Percentage inhibition of ligand binding, Adrenergic α2A [2]: 64%
Compound: CN1CCc2c(n(CC(O)c3ccc(F)c(F)c3)c3ccc(Cl)cc23)CC1 (single isomer, unassigned) [339b]

- inhibition at 0.1 µM [1, 5]: 34%
Compound: C/C(=C\n1c2c(c3cc(C)ccc31)CN(C)CC2(C)C)c1ccncc1 [II-70]

- inhibition at 0.1 µM [1, 5]: 36%
Compound: Cc1ccc2c(c1)c1c(n2CCc2ccc(C(F)(F)F)nc2)C(C)(C)CN(C)C1 [II-40]

- inhibition at 0.1 µM [1, 4]: 98%
Compound: Cc1cnc2c(c1)c1c(n2CCc2ccc(C(F)(F)F)nc2)CCN2CCCC12 (centres unmarked) [II-238]

- inhibition at 0.1 µM [1, 4]: -4%
Compound: FC(F)(F)c1ccc(CCn2c3c(c4cccnc42)CN2CCCC2C3)cn1 (centres unmarked) [II-236]

- Percentage inhibition of ligand binding, Adrenergic α2B [1]: 5%
Compound: Cc1ccc2c(c1)c1c(n2C(C)C(O)c2ccncc2)CCN(C)C1 (centres unmarked) [II-98b]

- inhibition at 0.03 µM [1, 3]: 98%
Compound: C/C(=C\n1c2c(c3cc(C)ccc31)C1CCCN1CC2)c1ccc(C)nc1 (centres unmarked) [193a, 10-methyl-7-(2-(6-methylpyridin-3-yl)prop-1-enyl)-2,3,5,6,7,11c-hexahydro-1H-indolizino[7,8-b]indole]

- inhibition at 0.1 µM [1, 4]: -5%
Compound: Cc1ccc(CCn2c3c(c4cccnc42)CN(C)CC3(C)C)cn1 [II-133]

- Ki [1]: 15.1 nM
- inhibition at 0.03 µM [1, 3]: 43%
- inhibition at 0.1 µM [1, 4]: 74%
Compound: Cc1ccc2c(c1)c1c(n2C(C)C(O)c2ccncc2)CCN(C)C1 (single isomer, unassigned) [127a]

Compound: Cc1ccc2c(c1)c1c(n2CC(N)c2ccncc2)CC2CCC1N2C (single isomer, unassigned) [155a]
- Percentage inhibition of ligand binding, Adrenergic α2A (0.1 μM) [2]: −1%

- Percentage inhibition of ligand binding, Adrenergic α2A [2]: 4%
Compound: OCCN1CCc2c(c3cc(Cl)ccc3n2CC(O)c2ccncc2)C1 (centres unmarked) [II-93b]

- inhibition at 0.1 µM [1, 5]: 47%
Compound: C/C(=C\n1c2c(c3cc(C)ccc31)CN(C)CC2(C)C)c1ccc(C)nc1 [II-61]

- Percentage inhibition of ligand binding, Adrenergic α2A (0.1 μM) [2]: 63%
Compound: Cc1ccc2c(c1)c1c(n2CC(O)c2ccc(C#N)cc2)CCN(C)C1 (single isomer, unassigned) [142b]
